From the supplement of paper PMC10307832

Experiments:
Test in all cases: relative viability (nuclei count vs DMSO), 5 days (fraction); higher = more cells survive
[1] = compound: CCCCCCCC[C@H]1[C@@H](C(=C)C(=O)O1)C(=O)O [C-75]
Summary of the method: (§1)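 Following overnight incubation at 37 °C, lung cancer cell lines in 1536-well plates were pinned with five library-drug doses (not always all listed) in √10 steps on vehicle-anchored plates. The cells then spent 5 days without medium change before a combined fix, permeabilisation and Hoechst stain, 4× imaging and MetaXpress nuclear counts. Viability is the treated-to-vehicle ratio of nuclei, taken as the median across plates. Only plates with control CV below 25% and at least one doubling passed.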

[2] = compound: NC(=O)Nc1cc(-c2cccc(F)c2)sc1C(=O)N[C@H]1CCCNC1 [AZD7762]
Summary of the method: as §1

[3] = compound: O=C(O)c1ccc(-c2c[nH]c3ncc(-c4ccccc4)cc23)cc1C1CCCC1
Summary of the method: as §1

[4] = compound: CC1(C)CCC(c2ccc(Cl)cc2)=C(CN2CCN(c3ccc(C(=O)NS(=O)(=O)c4ccc(N[C@H](CCN5CCOCC5)CSc5ccccc5)c(S(=O)(=O)C(F)(F)F)c4)cc3)CC2)C1 [Navitoclax]
Summary of the method: as §1

[5] = compound: Oc1nc(-c2ccc(C(F)(F)F)cc2)nc2c1CSCC2 [XAV939]
Summary of the method: as §1

Cell Line	relative viability ([1]; 0.08 µM)	relative viability ([1]; 0.253 µM)	relative viability ([1]; 0.8 µM)	relative viability ([1]; 8 µM)	relative viability ([2]; 0.01 µM)	relative viability ([2]; 0.03162 µM)	relative viability ([2]; 0.1 µM)	relative viability ([2]; 0.2 µM, anchor plate)	relative viability ([2]; 0.3162 µM)	relative viability ([2]; 1 µM)	relative viability ([3]; 0.04 µM)	relative viability ([3]; 0.1265 µM)	relative viability ([3]; 0.4 µM)	relative viability ([3]; 1.265 µM)	relative viability ([4]; 0.005 µM)	relative viability ([4]; 0.01581 µM)	relative viability ([4]; 0.1581 µM)	relative viability ([4]; 0.5 µM)	relative viability ([5]; 0.08 µM)	relative viability ([5]; 0.253 µM)	relative viability ([5]; 0.8 µM)	relative viability ([5]; 2.53 µM)	relative viability ([1]; 2.53 µM)	relative viability ([4]; 0.05 µM)	relative viability ([4]; 0.5 µM, anchor plate)
NCI-H1648	0.758	1.27	0.737	0.899	1.29	1.08	0.87	0.676	0.932	0.99	1	1.15	0.75	0.768	0.914	1.07	0.78	1.09	0.794	0.764	0.887	0.737	–	–	–
NCI-H1650	0.925	0.984	0.927	1.09	0.96	0.929	0.95	–	0.627	0.267	0.891	1.08	0.985	0.716	0.896	1.16	1.01	0.857	0.955	0.844	0.888	0.616	0.976	0.97	1.2
NCI-H1651	0.956	1.02	0.952	0.969	1.02	0.98	1.03	0.495	0.956	0.531	0.931	1.08	0.968	0.784	0.989	1	0.942	1	1	0.85	0.943	1	0.935	0.802	1.06
NCI-H1666	1.05	1.21	0.946	0.96	1.09	1.04	1.1	0.895	1.01	0.98	0.958	1.01	0.949	0.68	1.02	1.02	1.02	1.01	1.03	0.98	0.977	0.929	0.721	0.853	0.994
NCI-H1703	0.993	0.929	0.83	0.817	0.767	0.35	0.276	0.132	0.174	0.194	0.949	1.04	1.11	1.02	0.907	1.05	0.994	0.939	1.05	0.98	0.929	0.812	0.869	0.933	1.18
NCI-H1734	1.09	0.949	0.956	0.766	0.977	1.12	1.02	0.575	0.856	0.507	0.985	1.11	0.939	0.764	1.03	1.08	0.888	1.01	1.03	0.913	0.92	0.842	0.632	–	0.859
NCI-H1755	0.954	0.972	0.946	0.982	1.01	1.02	1.09	0.458	0.936	0.471	1.01	1.09	1.04	0.956	1.01	1.02	0.957	0.966	0.961	0.834	0.931	0.876	0.845	0.897	0.988
NCI-H1792	0.904	0.956	0.845	0.863	0.912	1.02	1.02	0.71	1.08	1.01	–	1.09	0.856	0.921	0.956	0.936	0.693	1.06	0.955	0.874	0.871	0.74	0.76	0.778	0.664
NCI-H1793	0.822	1.1	0.795	1.05	1.02	1.1	0.961	0.538	0.924	0.555	0.91	1.28	0.9	0.956	0.977	1.09	0.866	0.702	1.12	0.748	1.01	0.863	0.768	–	0.491
NCI-H1915	0.987	1.05	0.959	0.823	1.01	1.01	1.05	0.72	0.99	0.89	1.02	0.974	0.955	0.857	0.968	0.963	0.923	0.886	1.03	0.973	1.01	0.96	0.862	1.05	0.789
NCI-H1944	0.871	0.909	0.929	0.9	1	1	1.1	0.566	0.967	0.605	0.92	1.07	0.907	0.874	0.942	1.09	0.913	0.892	1.12	0.907	0.898	0.87	–	0.766	1.05
NCI-H1975	0.999	0.827	0.85	0.931	0.957	0.927	0.938	0.761	0.791	0.575	0.952	1.09	0.965	0.975	0.927	1.06	0.824	0.99	0.87	0.705	0.78	0.742	0.884	1.03	1.12
NCI-H1993	1.09	1.07	0.888	0.903	0.96	0.984	0.957	0.828	1.11	0.819	0.979	1.02	0.946	0.877	0.925	1.23	0.947	0.949	0.841	0.693	0.782	0.827	0.855	0.913	1.04
NCI-H2009	0.999	0.991	0.911	0.905	1.07	0.994	1.1	–	1	0.834	1.01	1.01	0.963	0.762	0.964	1.14	1.04	1.04	1.12	0.996	0.924	0.899	0.81	1.02	1.16
